From patent publication US20180064710A1, “ANTIFUNGAL TREATMENT OF PSORIASIS” (Gerbe Labs Inc., priority 2016, published 2018)
Like-named read-outs stand apart in the source and are kept apart here.

What was measured:
Assay type in all cases: cell-based
[1] = system: Aspergillus fumigatus + Candida albicans co-culture; assay: Broth microdilution MIC assay, co-culture of spores 1:1
Method: Broth Microdilution Minimal Inhibitory Concentration (MIC) assays were performed to obtain the MIC values for Itraconazole and Ketoconazole with an antibiotic (Vancomycin or Tobramycin or Amikacin) against the two fungal strains.
The strains were maintained as a frozen glycerol stocks at −80° C. The fungal strains were prepared by thawing a glycerol stock, streaking and growing onto Sabouraud's Dextrose Agar (SDA) plates, overnight at 35±2° C. in aerobic conditions and used for the assay.
The completely synthetic medium RPMI-1640 (with glutamine, without bicarbonate, and with phenol red as a pH indicator) was buffered with 0.165 mol/L MOPS (3-[N-morpholino] propanesulfonic acid) buffer was used as the growth medium for the fungal strains. Overnight cultures of the fungal strains were grown on Difco™ Sabouraud's Dextrose Agar (SDA) plates at 35° C. To induce conidium and sporangiospore formation, the culture plates were transferred to incubator and grown for 5-7 days 30° C. or until good sporulation was obtained. Approximately, 10 mL of 0.85% saline containing 0.01% of Tween 80 was used to poured on to the agar plate containing conidia or sporangiospores and hyphal fragments. The suspension containing conidia or sporangiospores and hyphal fragments was aspirated and transferred to a sterile tube. This mixture was filtered to separate the spores from the vegetative cells of the fungi. The supernatant containing only fungal spores was used for all the assays. Fungal spore inoculum was prepared in RPMI-1640 (with glutamine, without bicarbonate, and with phenol red as a pH indicator) was buffered with 0.165 mol/L MOPS (3-[N-morpholino] propanesulfonic acid) buffer to a final density of 10^6 CFU/mL using a hemocytometer.
Each MIC assay included 11 2-fold serial dilutions of the antifungal agents. Test concentrations for the test articles were tested at the following concentrations: 64 μg/mL, 32 μg/mL, 16 μg/mL, 8 μg/mL, 4 μg/mL, 2 μg/mL, 1 μg/mL, 0.5 μg/mL, 0.25 μg/mL, 0.125 μg/mL, and 0.0625 μg/mL. Broth microdilution assays were performed according to the procedures detailed in CLSI document M38-A2 (CLSI, 2008). Briefly, 2× stock solutions of test articles were prepared at 128 μg/mL. A two-fold serial dilution of the stock solution were performed. Diluted stock solutions of the fungal spores were adjusted (to be equivalent to 10^6 CFU/mL). 1× final concentration of the antifungals was obtained when they were combined with the fungal spore broth in the microtiter plate. Plates were incubated for 3-5 days at 35±2° C. in an ambient air incubator. MIC values recorded are the minimum concentration of the test articles that inhibits growth as observed by unaided eye. The MIC values was expressed in μg/mL. The assay was carried out in duplicates.

[2] = system: Candida albicans; assay: Culture sensitivity, Patient 7 fungal isolate; conditions: Patient 7 culture
Source text: (§1) The patient underwent the standard workup for CRS, sleep disorder, and nasal obstruction, plus our diagnostic skin test and sinus CT scan.

[3] = system: S. aureus, a gram negative bacteria; assay: Culture sensitivity, Patient 7 bacterial isolate; conditions: Patient 7 culture
Source text: as §1

[4] = A. fumigatus + C. albicans co-culture, repeated MIC study (Table 4), agent alone, read-out: MIC

MIC ([1]; A. fumigatus + C. albicans co-culture 1:1, first study (Table 3), read-out: MIC) | MIC ([1]; A. fumigatus + C. albicans co-culture, repeated MIC study (Table 4), agent alone, listed as Itraconazone) | MIC [1, 4] | SMILES | Sensitivity of cultured Candida albicans [2] | Sensitivity of cultured bacteria [3]
0.5 µg/mL | 1 µg/mL | 1 µg/mL | CCC(C)n1ncn(-c2ccc(N3CCN(c4ccc(OCC5COC(Cn6cncn6)(c6ccc(Cl)cc6Cl)O5)cc4)CC3)cc2)c1=O (stereo not drawn) [Itraconazole] |  | 
 |  | 8 µg/mL | CC(=O)N1CCN(c2ccc(OCC3COC(Cn4ccnc4)(c4ccc(Cl)cc4Cl)O3)cc2)CC1 (stereo not drawn) [Ketoconazole] | sensitive | 
 |  |  | NC[C@H]1O[C@H](O[C@H]2[C@H](O)[C@@H](O[C@H]3O[C@H](CO)[C@@H](O)[C@H](N)[C@H]3O)[C@H](N)C[C@@H]2N)[C@H](N)C[C@@H]1O [tobramycin] |  | sensitive
